Reference: article PMC8915595, “Revisiting the application of Immobilized Artificial Membrane (IAM) chromatography to estimate in vivo distribution properties of drug discovery compounds based on the model of marketed drugs” (ADMET & DMPK, 2020)

Test system: not given
Assay: not given
Conditions: human

Structure (SMILES) | reference log Vdss
O=C(O)Cc1ccccc1Nc1c(Cl)cccc1Cl [Diclofenac] | -0.67
CC(=O)CC(c1ccccc1)c1c(O)c2ccccc2oc1=O (centres unmarked) [Warfarin] | -0.78

Target: T1, human serum albumin (HSA) (Homo sapiens, UniProt P02768)
T1 sequence (P02768 25-609): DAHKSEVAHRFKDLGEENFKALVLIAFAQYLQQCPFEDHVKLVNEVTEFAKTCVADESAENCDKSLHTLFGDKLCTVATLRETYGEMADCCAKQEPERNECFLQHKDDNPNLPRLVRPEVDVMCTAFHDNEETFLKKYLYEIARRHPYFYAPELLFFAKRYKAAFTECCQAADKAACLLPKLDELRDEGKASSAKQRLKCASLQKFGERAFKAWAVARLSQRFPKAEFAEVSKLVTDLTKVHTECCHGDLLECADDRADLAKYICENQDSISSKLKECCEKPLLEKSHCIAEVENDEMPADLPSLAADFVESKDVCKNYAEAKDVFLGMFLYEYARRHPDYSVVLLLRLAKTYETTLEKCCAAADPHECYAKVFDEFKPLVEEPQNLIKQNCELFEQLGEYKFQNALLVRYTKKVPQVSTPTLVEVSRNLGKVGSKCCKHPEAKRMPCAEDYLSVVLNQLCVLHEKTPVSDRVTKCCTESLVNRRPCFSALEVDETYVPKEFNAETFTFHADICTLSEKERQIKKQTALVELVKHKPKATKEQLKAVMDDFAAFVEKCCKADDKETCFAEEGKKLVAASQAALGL
Assay: not given
Conditions: cited from earlier work

Structure (SMILES) | log K HSA from ref [13]
COc1cc(Cc2cnc(N)nc2N)cc(OC)c1OC [Trimethoprim] | 4.45
OCCN1CCN(CCCN2c3ccccc3Sc3ccc(Cl)cc32)CC1 [Perphenazine] | 1.6
CC/C(=C(\c1ccccc1)c1ccc(OCCN(C)C)cc1)c1ccccc1 [Tamoxifen] | 1.29
CCCc1cc(=O)[nH]c(=S)[nH]1 [Propylthiouracil] | 2.67
COc1ccc2cc(CCC(C)=O)ccc2c1 [Nabumetone] | 0.49
Clc1ccc2c(c1)C(N1CCNCC1)=Nc1ccccc1O2 [Amoxapine] | 2.15
CCN(CC)CCNC(=O)c1ccc(NC(C)=O)cc1 [Acecainide] | 0.69
NC(=O)OCC(COC(N)=O)c1ccccc1 [Felbamate] | 3.46
Cn1c(=O)c2c(ncn2CC(O)CO)n(C)c1=O (centres unmarked) [Diprophylline] | 4.1
O=c1n(CCCN2CCN(c3cccc(Cl)c3)CC2)nc2ccccn12 [Trazodone] | 0.8
CCN(CC)CCNC(=O)c1ccc(N)cc1 [Procainamide] | 0.73
O=C1C(CC[S+]([O-])c2ccccc2)C(=O)N(c2ccccc2)N1c1ccccc1 (centres unmarked) [Sulfinpyrazone] | 3.17

Target: T1, human serum albumin (HSA)
Assay: Protein binding on chemically bonded HSA column (Chiralpak-HSA)
Conditions: remeasured in this study, pH 7.4
Method: Mobile phase A was 50 mM ammonium acetate adjusted to pH 7.4 and mobile phase B was 2-propanol. The flow rate was 1.5 mL/min and the run time was 6 min. The 2-propanol gradient was applied from 0 to 35% from 0 to 3.00 min and kept at 35% until 4.00 min.

log K HSA | Structure (SMILES)
0.95 | COc1cc(Cc2cnc(N)nc2N)cc(OC)c1OC [Trimethoprim]
2.02 | OCCN1CCN(CCCN2c3ccccc3Sc3ccc(Cl)cc32)CC1 [Perphenazine]
3.21 | CCCc1cc(=O)[nH]c(=S)[nH]1 [Propylthiouracil]
3.68 | Cc1noc(NS(=O)(=O)c2ccc(N)cc2)c1C [Sulfisoxazole]
2.70 | Clc1ccc2c(c1)C(N1CCNCC1)=Nc1ccccc1O2 [Amoxapine]
2.59 | C[C@]12CCC(=O)C=C1CC[C@@H]1[C@@H]2[C@@H](O)C[C@@]2(C)[C@H]1CC[C@]2(O)C(=O)CO [Hydrocortisone]
3.06 | O=c1n(CCCN2CCN(c3cccc(Cl)c3)CC2)nc2ccccn12 [Trazodone]
1.67 | CCN(CC)CCNC(=O)c1ccc(N)cc1 [Procainamide]

The remaining lines, values behind:

Structure (SMILES) | log K HSA
CC/C(=C(\c1ccccc1)c1ccc(OCCN(C)C)cc1)c1ccccc1 [Tamoxifen] | 4.82
COc1ccc2cc(CCC(C)=O)ccc2c1 [Nabumetone] | 2.14
CCN(CC)CCNC(=O)c1ccc(NC(C)=O)cc1 [Acecainide] | 0.52
NC(=O)OCC(COC(N)=O)c1ccccc1 [Felbamate] | 4.15
Cn1c(=O)c2c(ncn2CC(O)CO)n(C)c1=O (centres unmarked) [Diprophylline] | 4.24
O=C1C(CC[S+]([O-])c2ccccc2)C(=O)N(c2ccccc2)N1c1ccccc1 (centres unmarked) [Sulfinpyrazone] | 2.66

Test system: not given
Assay: not given
Conditions: reference CHI (IAM), old columns; cited from earlier work

Structure (SMILES) | CHI (IAM) from ref [13]
COc1cc(Cc2cnc(N)nc2N)cc(OC)c1OC [Trimethoprim] | 20.80
O=C(O)Cc1ccccc1Nc1c(Cl)cccc1Cl [Diclofenac] | 33.50
OCCN1CCN(CCCN2c3ccccc3Sc3ccc(Cl)cc32)CC1 [Perphenazine] | 56.30
COc1ccc2cc(CCC(C)=O)ccc2c1 [Nabumetone] | 38.40
Cc1noc(NS(=O)(=O)c2ccc(N)cc2)c1C [Sulfisoxazole] | 2.90
Clc1ccc2c(c1)C(N1CCNCC1)=Nc1ccccc1O2 [Amoxapine] | 56.50
C[C@]12CCC(=O)C=C1CC[C@@H]1[C@@H]2[C@@H](O)C[C@@]2(C)[C@H]1CC[C@]2(O)C(=O)CO [Hydrocortisone] | 27.90
CCN(CC)CCNC(=O)c1ccc(NC(C)=O)cc1 [Acecainide] | 23.30
NC(=O)OCC(COC(N)=O)c1ccccc1 [Felbamate] | 19.07
Cn1c(=O)c2c(ncn2CC(O)CO)n(C)c1=O (centres unmarked) [Diprophylline] | -4.00
O=c1n(CCCN2CCN(c3cccc(Cl)c3)CC2)nc2ccccn12 [Trazodone] | 36.30
O=C1C(CC[S+]([O-])c2ccccc2)C(=O)N(c2ccccc2)N1c1ccccc1 (centres unmarked) [Sulfinpyrazone] | 26.10

Test system: not listed separately
Assay: IAM chromatography on new IAM.PC.DD2 columns (gradient HPLC, CHI (IAM))
Format: physicochemical
Set-up: key to CHI (IAM) “new” / P20511-014-3 CHI (IAM): CHI (IAM) from retention times calibrated to predefined CHI standards
Conditions: lower CHI (IAM) on new batches; outlier if difference greater than 7.2 CHI IAM units
Method: The IAM binding was measured using IAM.PC.DD2 HPLC columns (Regis Technologies, Inc., IL, USA) with dimensions of 100 x 4.6 mm, particle size 10 μm with 300 Å pore size.
Two batches of IAM.PC.DD2 columns were studied (R20511-014-3 and P20511-014-3) that had been prepared using the new batches of silica support.
The retention times were standardized using the IAM calibration mixture, containing octanophenone, heptanophenone, hexanophenone, valerophenone, butyrophenone, propiophenone, acetophenone, acetanilide and paracetamol. The retention times of the compounds were plotted against the isocratically determined and predefined CHI (IAM) values listed in Table 1. The slope and intercept of the obtained straight line was used to calculate the CHI IAM values of new compounds.

Structure (SMILES) | outlier in correlation of reference CHI (IAM) with CHI (IAM) on column R20511-014-3
CCN(CC)CCNC(=O)c1ccc(N)cc1 [Procainamide] | outliers

Same assay, conditions: new IAM.PC.DD2 column batch P20511-014-3, pH 7.4

P20511-014-3 CHI (IAM) | Structure (SMILES)
20.52 | COc1cc(Cc2cnc(N)nc2N)cc(OC)c1OC [Trimethoprim]
48.97 | OCCN1CCN(CCCN2c3ccccc3Sc3ccc(Cl)cc32)CC1 [Perphenazine]
7.37 | Cc1noc(NS(=O)(=O)c2ccc(N)cc2)c1C [Sulfisoxazole]
44.74 | Clc1ccc2c(c1)C(N1CCNCC1)=Nc1ccccc1O2 [Amoxapine]
27.02 | C[C@]12CCC(=O)C=C1CC[C@@H]1[C@@H]2[C@@H](O)C[C@@]2(C)[C@H]1CC[C@]2(O)C(=O)CO [Hydrocortisone]
33.86 | O=c1n(CCCN2CCN(c3cccc(Cl)c3)CC2)nc2ccccn12 [Trazodone]
11.89 | CCN(CC)CCNC(=O)c1ccc(N)cc1 [Procainamide]

The next lines start with the compound.

Structure (SMILES) | P20511-014-3 CHI (IAM)
O=C(O)Cc1ccccc1Nc1c(Cl)cccc1Cl [Diclofenac] | 35.85
COc1ccc2cc(CCC(C)=O)ccc2c1 [Nabumetone] | 35.96
CCN(CC)CCNC(=O)c1ccc(NC(C)=O)cc1 [Acecainide] | 17.57
NC(=O)OCC(COC(N)=O)c1ccccc1 [Felbamate] | 39.21
Cn1c(=O)c2c(ncn2CC(O)CO)n(C)c1=O (centres unmarked) [Diprophylline] | -1.98
CC(=O)CC(c1ccccc1)c1c(O)c2ccccc2oc1=O (centres unmarked) [Warfarin] | 24.18
O=C1C(CC[S+]([O-])c2ccccc2)C(=O)N(c2ccccc2)N1c1ccccc1 (centres unmarked) [Sulfinpyrazone] | 26.89

Same assay, conditions: new IAM.PC.DD2 column batch R20511-014-3, pH 7.4

R20511-014-3 CHI (IAM) | Structure (SMILES)
20.99 | COc1cc(Cc2cnc(N)nc2N)cc(OC)c1OC [Trimethoprim]
49.57 | OCCN1CCN(CCCN2c3ccccc3Sc3ccc(Cl)cc32)CC1 [Perphenazine]
6.48 | Cc1noc(NS(=O)(=O)c2ccc(N)cc2)c1C [Sulfisoxazole]
45.41 | Clc1ccc2c(c1)C(N1CCNCC1)=Nc1ccccc1O2 [Amoxapine]
27.23 | C[C@]12CCC(=O)C=C1CC[C@@H]1[C@@H]2[C@@H](O)C[C@@]2(C)[C@H]1CC[C@]2(O)C(=O)CO [Hydrocortisone]
34.09 | O=c1n(CCCN2CCN(c3cccc(Cl)c3)CC2)nc2ccccn12 [Trazodone]
11.73 | CCN(CC)CCNC(=O)c1ccc(N)cc1 [Procainamide]

Continued, compound first:

Structure (SMILES) | R20511-014-3 CHI (IAM)
O=C(O)Cc1ccccc1Nc1c(Cl)cccc1Cl [Diclofenac] | 35.18
COc1ccc2cc(CCC(C)=O)ccc2c1 [Nabumetone] | 35.90
CCN(CC)CCNC(=O)c1ccc(NC(C)=O)cc1 [Acecainide] | 17.72
NC(=O)OCC(COC(N)=O)c1ccccc1 [Felbamate] | 39.16
Cn1c(=O)c2c(ncn2CC(O)CO)n(C)c1=O (centres unmarked) [Diprophylline] | -1.49
CC(=O)CC(c1ccccc1)c1c(O)c2ccccc2oc1=O (centres unmarked) [Warfarin] | 23.47
O=C1C(CC[S+]([O-])c2ccccc2)C(=O)N(c2ccccc2)N1c1ccccc1 (centres unmarked) [Sulfinpyrazone] | 26.19

Same assay, conditions: system suitability test compounds

Structure (SMILES) | CHI (IAM) deviation between reference and new IAM.PC.DD2 columns
CC(=O)CC(c1ccccc1)c1c(O)c2ccccc2oc1=O (centres unmarked) [Warfarin] | very similar

Same assay, conditions: system suitability test compounds, new IAM.PC.DD2 columns, pH 7.4

Structure (SMILES) | CHI (IAM) “new”
CC(=O)CC(c1ccccc1)c1c(O)c2ccccc2oc1=O (centres unmarked) [Warfarin] | 24.0
